In ChEMBL document CHEMBL1201862, “PubChem BioAssay data set” (2004):
Active and inactive are the calls of the source.

What was measured:
[1] = Trypanosoma cruzi growth suppression in host cells – NIH3T3 host cells, beta-gal luminescence, confirmation (AID 2044); type: functional, cell-based;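 also: intracellular parasites grown in NIH/3T3 mouse fibroblasts as host cells; luminescent beta-galactosidase reporter signal from transgenic T. cruzi replicating inside host cells; inhibitors lower the luminescence signal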
[2] = NIH3T3 cell viability loss – ATP luminescence, mouse fibroblasts, counter-screen, dose response (AID 2010); type: functional, cell-based;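 also: cells exposed to compound for about 90 hours before reading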
[3] = target: Bifunctional protein GlmU (Mycobacterium tuberculosis, UniProt P9WMN3); test: Inhibitors of Mycobacterial Glucosamine-1-phosphate acetyl transferase (GlmU). Secondary screen.; parameters: species or system Mycobacterium tuberculosis H37Rv
Sequence of Bifunctional protein GlmU (P9WMN3 whole entry): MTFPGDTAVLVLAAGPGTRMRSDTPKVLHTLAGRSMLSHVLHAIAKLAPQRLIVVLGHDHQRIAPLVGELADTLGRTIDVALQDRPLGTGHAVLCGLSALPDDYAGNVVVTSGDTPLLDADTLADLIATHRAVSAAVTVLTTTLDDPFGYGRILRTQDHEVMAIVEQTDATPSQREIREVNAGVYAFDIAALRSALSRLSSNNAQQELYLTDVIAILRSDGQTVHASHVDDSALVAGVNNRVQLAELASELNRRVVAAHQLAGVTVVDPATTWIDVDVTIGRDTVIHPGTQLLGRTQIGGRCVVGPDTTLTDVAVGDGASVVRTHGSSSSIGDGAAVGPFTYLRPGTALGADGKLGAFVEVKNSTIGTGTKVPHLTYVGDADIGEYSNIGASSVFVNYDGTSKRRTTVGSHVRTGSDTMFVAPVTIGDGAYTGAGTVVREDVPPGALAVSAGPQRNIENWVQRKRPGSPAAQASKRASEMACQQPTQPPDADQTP

[4] = viability loss of HPDE-C7K cells – cell-based, fluorescence, HTS, primary screen (AID 431); type: functional; details: Homo sapiens
[5] = HPDE-C7 pancreatic duct cell viability loss – fluorescence, HTS (AID 430); type: functional, cell-based; details: Homo sapiens
[6] = target: T1, Tyrosine-protein phosphatase non-receptor type 7 (Homo sapiens, UniProt P35236); test: HePTP tyrosine phosphatase activity blockers – biochemical, absorbance, leukemia target, primary screen (AID 521); type: functional
T1 sequence (P35236 whole entry): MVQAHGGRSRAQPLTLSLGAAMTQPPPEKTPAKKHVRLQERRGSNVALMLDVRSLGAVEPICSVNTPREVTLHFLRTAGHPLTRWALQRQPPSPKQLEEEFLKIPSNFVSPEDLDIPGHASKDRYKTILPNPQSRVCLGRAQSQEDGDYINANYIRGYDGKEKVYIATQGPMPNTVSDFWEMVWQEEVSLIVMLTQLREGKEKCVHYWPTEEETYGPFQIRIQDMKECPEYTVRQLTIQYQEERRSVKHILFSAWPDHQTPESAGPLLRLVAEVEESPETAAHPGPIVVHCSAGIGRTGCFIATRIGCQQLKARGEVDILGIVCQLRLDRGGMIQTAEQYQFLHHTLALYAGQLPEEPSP

[7] = Luminescence Cell-Based Dose Confirmation HTS to Identify Inhibitors of Polyadenylation.; type: functional
[8] = rise of 2N DNA cells, HeLa – IC50, dose response (AID 1117349); type: functional, cell-based
[9] = rise of 4N DNA cells, HeLa – IC50, dose response (AID 1117351); type: functional, cell-based
[10] = OVCAR-3 cell viability loss – plate reader, dry powder samples, PAX8 inhibitor project, dose response (AID 743044); type: functional, cell-based
[11] = OVCAR8 cell viability loss – plate reader, dry powder samples, PAX8 project, dose response (AID 743197); type: functional, cell-based; details: OVCAR-8
[12] = A2780 cell killing – plate reader, dry powder samples, cytotoxicity control, dose response (AID 743046); type: functional, cell-based
Paired box protein Pax-8 = Paired box protein Pax-8 (Homo sapiens, UniProt Q06710); test: PAX8 transcriptional activity inhibition in RMG-I – RMG-I cells, luciferase, cherry-pick, dose response (AID 687027); type: functional, cell-based;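 also: luciferase reporter driven by Pax8 target thyroperoxidase promoter measured by SteadyGlo luminescence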
Sequence of Paired box protein Pax-8 (Q06710 whole entry): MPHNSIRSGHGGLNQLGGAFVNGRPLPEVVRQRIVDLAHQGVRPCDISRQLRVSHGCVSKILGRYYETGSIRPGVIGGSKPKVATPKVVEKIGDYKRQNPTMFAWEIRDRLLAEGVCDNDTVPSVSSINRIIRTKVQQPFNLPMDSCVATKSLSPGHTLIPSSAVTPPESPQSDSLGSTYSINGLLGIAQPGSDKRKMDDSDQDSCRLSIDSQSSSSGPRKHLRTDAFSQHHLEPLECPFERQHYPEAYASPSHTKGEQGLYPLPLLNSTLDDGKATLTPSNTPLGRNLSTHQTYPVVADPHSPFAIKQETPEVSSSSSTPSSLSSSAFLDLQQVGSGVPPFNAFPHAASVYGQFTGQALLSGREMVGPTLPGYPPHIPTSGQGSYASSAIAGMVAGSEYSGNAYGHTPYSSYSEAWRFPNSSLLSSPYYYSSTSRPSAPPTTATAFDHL

[13] = potency of ADAM10 substrate cleavage blockers – biochemical, QFRET, dose response (AID 743254);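 also: ADAM10 enzyme with the DM2 quenched FRET peptide as substrate; EDANS fluorescence gain as the protease cuts the substrate; inhibitor potency against ADAM10 proteolytic activity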
[14] = target: Disintegrin and metalloproteinase domain-containing protein 17 (Homo sapiens, UniProt P78536); test: inhibition of ADAM17 substrate cleavage – biochemical, quenched FRET substrate, counter-screen for ADAM10 exosite inhibitor project, dose response (AID 743253)
Sequence of Disintegrin and metalloproteinase domain-containing protein 17 (P78536 whole entry, the tested form may be a part): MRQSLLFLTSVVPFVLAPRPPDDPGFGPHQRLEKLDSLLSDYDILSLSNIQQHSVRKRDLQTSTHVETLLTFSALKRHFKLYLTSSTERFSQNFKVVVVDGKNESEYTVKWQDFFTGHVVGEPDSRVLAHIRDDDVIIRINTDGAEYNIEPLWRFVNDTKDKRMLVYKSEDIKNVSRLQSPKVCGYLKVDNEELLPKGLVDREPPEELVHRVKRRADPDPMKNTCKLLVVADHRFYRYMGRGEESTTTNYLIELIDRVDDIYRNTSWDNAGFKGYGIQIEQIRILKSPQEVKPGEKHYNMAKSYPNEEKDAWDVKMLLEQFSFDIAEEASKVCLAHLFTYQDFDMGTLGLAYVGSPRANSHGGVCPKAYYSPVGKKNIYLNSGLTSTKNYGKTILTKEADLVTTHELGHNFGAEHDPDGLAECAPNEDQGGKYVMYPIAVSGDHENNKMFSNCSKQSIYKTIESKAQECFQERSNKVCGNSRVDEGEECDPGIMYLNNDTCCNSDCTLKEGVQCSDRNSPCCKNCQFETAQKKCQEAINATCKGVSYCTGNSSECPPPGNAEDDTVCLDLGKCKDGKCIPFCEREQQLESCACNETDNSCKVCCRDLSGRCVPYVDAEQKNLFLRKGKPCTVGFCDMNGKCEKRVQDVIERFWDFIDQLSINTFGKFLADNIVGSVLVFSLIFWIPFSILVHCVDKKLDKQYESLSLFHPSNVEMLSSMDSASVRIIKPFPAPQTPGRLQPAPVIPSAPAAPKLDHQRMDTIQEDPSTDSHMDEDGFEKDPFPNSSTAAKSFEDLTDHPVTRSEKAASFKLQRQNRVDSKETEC

[15] = HIV-1 Vif–A3G interaction blockers – biochemical, TR-FRET, GST-Vif 1-94, biotin-A3G peptide, dose response retest, primary screen (AID 1117319); type: functional;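 also: TR-FRET signal of purified GST-Vif binding a biotinylated A3G peptide; inhibitors lower the FRET signal by blocking Vif and A3G binding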
[16] = Reduced DLD-1 viability, concentration-response, CellTiter-Glo luminescence (AID 1117352); type: functional
[17] = cytotoxicity toward HCT116 cells – cell-based, CellTiter-Glo luminescence, IC50, dose response (AID 1117332); type: functional; details: HCT-116
[18] = cytotoxicity toward HT-29 cells – cell-based, CellTiter-Glo luminescence, IC50, dose response (AID 1117330); type: functional
[19] = cytotoxicity toward Colo320 cells – cell-based, CellTiter-Glo luminescence, IC50, dose response (AID 1117334); type: functional; details: COLO 320
[20] = CellTiter-Glo luminescence survival assay, SW480 colon tumor line, concentration-response curve, half-maximal inhibitory concentration (AID 1117338); type: functional
[21] = RKO cell viability reduction, dose response, CellTiter-Glo luminescence (AID 1117322); type: functional
[22] = SNU-C1 cell viability reduction, dose response, CellTiter-Glo luminescence (AID 1117323); type: functional, cell-based

Question: With `Clc1ccc(SCCOCCN2CCc3ccccc3C2)cc1` as the molecule, how does the EC50 [1] read?
Answer: < 0.1 µM (active)

Question: What about the EC50 [2] of the same molecule?
Answer: > 60 µM (not active)

Question: What about the EC50 (cells) of the same molecule?
Answer: 0.081 µM (active)

Question: For `CN1CCN(C(=S)NC(=O)c2ccc(Cl)cc2)CC1`, which IC50 [3] is on record?
Answer: 132 µM (active)

Question: What does the source list for `Cc1ccc2nc(-c3cccc(NC(=O)c4ccc5c(c4)OCCO5)c3)oc2c1`?
Answer: EC50 [4]: 6.12 µM (active); EC50 [5]: 6.12 µM (active)

Question: For `Cc1ccc(OCC(=O)Nc2ccc(-c3nnc(-c4ccco4)o3)cc2)cc1`, which IC50 [6] is on record?
Answer: > 100 µM (not active)

Question: Which IC50 [6] does the source give for `Cn1c(=O)oc2cc(S(=O)(=O)N3CCCC(C(=O)N4CCn5c4nc4ccccc45)C3)ccc21` (stereo not given) here?
Answer: > 100 µM (not active)

Question: With `O=C(COC(=O)Cc1ccc(S(=O)(=O)N2CCOCC2)s1)NCc1ccccc1` as the molecule, how does the EC50 [7] read?
Answer: 39.8 µM (active)

Question: For `COc1ccc(/C=C/C(=O)c2ccc(OC)cc2OC)cc1`, which IC50 [8] is on record?
Answer: > 10 µM (inactive)

Question: And the IC50 [9]?
Answer: > 10 µM (inactive)

Question: Which results are given for `C[C@H]1CCCCO[C@@H](CN(C)S(=O)(=O)c2cccs2)[C@@H](C)CN([C@@H](C)CO)C(=O)c2cc(NS(=O)(=O)c3ccc(Cl)cc3)ccc2O1`?
Answer: AC50 [10]: 42.6 µM (active); AC50 [11]: > 70 µM (inactive); AC50 [12]: 14.1 µM (active); AC50 (Paired box protein Pax-8): 7.93 µM (active)

Question: For `Cc1ccc(-n2c(Cc3cccs3)nnc2SCC(=O)Nc2ccc(OCc3ccccc3)cc2)cc1`, which IC50 [13] is on record?
Answer: > 69.5 µM (inactive)

Question: And the IC50 [14]?
Answer: > 69.5 µM (inactive)

Question: For `CN(C)c1ccc(/C=N\NC(=O)c2csnn2)cc1`, which IC50 [15] is on record?
Answer: > 100 µM (active)

Question: Which results are given for `Cc1c(C)c2c(c(C)c1O)CC[C@@](C)(CCC[C@H](C)CCC[C@H](C)CCCC(C)C)O2` [alpha-TOCHOPHEROL]?
Answer: IC50 [16]: > 20 µM (inactive); IC50 [17]: > 20 µM (inactive); IC50 [18]: > 20 µM (inactive); IC50 [19]: > 20 µM (inactive); IC50 [20]: > 20 µM (inactive); IC50 [21]: 2.61 µM (active); IC50 [22]: > 20 µM (inactive)
